In test [1] the test system is HeLa cells. The test is described as follows: DNA damage γ-H2AX immunofluorescence. Format: cell-based, human. As to conditions: 24 h, concentration dependent. The protocol: HeLa cells (1 × 10^4/mL) were seeded in 12-well cell culture dishes and after 24 h, they were administered with the sulphonamide derivative compounds at doses of 10–25–50 µM and incubated for 24 h. The cells were washed with PBS and fixed with 100% methanol at −20 °C overnight, which was followed by PBS washing three times for 10 min for each washing. The cells were treated with 0.2% Triton X-100 in a shaker, at room temperature for 5 min. They were washed with PBS, and 1% BSA-containing PBS was then added, and incubation with primary mouse monoclonal anti-γ-H2AX antibody (Cell Signaling Technology, Danvers, MA) was applied at 37 °C for 1 h. The cells were washed with PBS for 5 min three times. Secondary goat anti-mouse Alexa-488-conjugated IgG (Invitrogen, Thermo Fisher Scientific, USA) was administered and the cells were incubated at 37 °C for 20 min, followed by PBS washing for 4–5 min three times. 1 mL 70% EtOH was added and, at +4 °C, released to incubation for 5 min. 1 mL 100% EtOH was added in a shaker, which was then incubated at room temperature for 1–2 min. The nucleus was stained with DAPI and the images were recorded using an Olympus Inverted Fluorescence Microscope (Olympus CKX53, DP73).

The subject of test [2] is HeLa (cervix adenoma cancer cell). The test is described as follows: WST-1 cytotoxicity, HeLa. It counts as cell-based, human. The protocol:
(§1) Cancer and normal cell lines were purchased from ATCC and stored in liquid nitrogen. HT-29 (colon adenoma cancer), HeLa (cervix adenoma cancer cell), MDA-MB-231 (breast adenoma cancer cell), HEK-293 (embryonic kidney epithelial cell) and PNT-1A (normal prostate cells) cell lines were incubated in DMEM: F-12 and RPMI-1640, including 10% foetal bovine serum (FBS), 100 µg/mL streptomycin/100 IU/mL penicillin, at 37 °C in an incubator containing 5% CO2, 95% air in a humid atmosphere.
(§2) The cytotoxic effects of the substances were evaluated with WST-1 kits (Roche, Germany) in accordance with the manufacturer’s protocols. The cells were planted in 96-well plates (10^4 cells in each well). After incubation for 24 h, the media were discarded and the substances and 5-Fu as the control drug, at doses of 0, 2.5, 5, 10, 25, 50, 100 and 200 µM, were incubated for 24, 48 and 72 h. WST-1 reactive of 10 µL was added to all wells. Following 4-h incubation, the measurements were taken on a plate reader (Spectramax M5) at wavelengths of 450 and 630 nm. Graphs were then created and the IC50 value of each substance was calculated.

For test [3], the system named is HEK-293 (embryonic kidney epithelial cell). The test is described as follows: WST-1 cytotoxicity, HEK-293. As to conditions: normal cell. It counts as cell-based. The protocol: as §1, §2
Test [4] deals with PNT-1A (normal prostate cells). The test is described as follows: WST-1 cytotoxicity, PNT-1A. It counts as cell-based. The note with it: normal cell. The protocol: as §1, §2
(In general: Tetrazolium assays rely on reduction of a dye to a coloured formazan, in cell work by metabolically active cells.)

For test [5], the system named is HeLa cells. The test is described as follows: Intracellular pH, extracellular pH and lactate level. It counts as cell-based, human. The protocol:
Intracellular PH was measured according to the protocol of the fluorometric intracellular pH assay kit (Sigma, Germany, MAK-150). Fluorescent BCFL-AM indicator that was able to pass through the cell membrane was used to measure pHi fluctuations in the fluorometric intracellular pH kit. BCFL-AM was utilised to measure the reductions in pHi of the cells that had been treated by various conditions. The cells were planted in black plates, as 6 × 10^4 in each well of the plate, and incubated for 24 h. The medium was replaced with BCFL-AM reagent which had been prepared in 100 µL of HBS solution (Hank’s buffer with 20 mM HEPES, 5 mM probenecid), then the cells were incubated at 37 °C in an atmosphere of 5% CO2 for 30 min (protected from light). Sulphonamide compound at doses of 0, 10, 25 and 50 µM was added to the HBS solution. In the next 5 min, the measurement was performed at wavelengths of 490 nm (excitation) and 535 nm (emission) in spectrofluorimetry (Spectramax, M5). Extracellular pH (pHe) and lactate levels were measured with commercial kit by the blood gas device (ABL90 FLEX PLUS, Radiometer, Copenhagen, Denmark) which is routinely used in the clinical biochemistry laboratory of hospital. After the application of the substance in this method, the media were analysed directly by the device.

Test [6] has as its system HeLa cells. The test is described as follows: Western blot of apoptosis proteins and CA IX. It counts as cell-based, human. The note with it: 24 h. The protocol: The cells were seeded on 6 cm^2 cell culture dishes and treated with sulphonamide compounds, at doses of 10–25–50 µM, for 24 h. The cells were then washed with cold PBS, which was followed by lysis with RIPA lysis buffer (10 mM Tris-HCl pH = 8, 1 mM EDTA, 1 mM EGTA, 140 mM NaCl, 1% Triton X-100, 0.1 SDS, 0.1% sodium deoxycholate), 1X phosphates and protease inhibitor (Santa Cruz Biotechnology, Dallas, USA). The acquired supernatants from the lysates which were centrifuged at 12,000 g, + 4 °C, for 10 min, were transferred to new tubes. Protein concentration was detected using the protein assay kit BCA (Thermo Fisher Scientific, Waltham, MA). After a 30-min period of protein (50 µg) standing in 10% SDS–PAGE gel at 50 V and at 80 V for 3 h, those were blotted to PVDF membrane at 70 V for 5 min (Bio-Rad Turbo Transfer System). After embedding in 1X TBST (12.1 g Tris, pH 7.5, 70 g NaCl, 0.1% Tween-20) containing 5% dry milk or 5% BSA, the primer monoclonal antibodies shown in Table 2 were applied to the membrane and left overnight, which was followed by washing with 1 X TBS-T and an incubation period with secondary antibodies of HRP rabbit or mouse (1/10.000) for 60 min. The membrane was again washed with 1 X TBS-T. For band imaging, ECL substrate (EMD Millipore Corp., Billerica, MA) was added and observations were made via the imaging system (LI-COR Odyssey Fc).
On the technique in general: A western blot detects proteins with antibodies after separation by electrophoresis.

Read-outs that look alike come from different tables or passages of the source.

The IC50 is the point on the concentration scale where inhibition reaches its midpoint. For the compound `NS(=O)(=O)c1ccc(CCN=Cc2cc(Br)ccc2O)cc1` [Compound 1], the “DNA damage (γ-H2AX foci)” value in the test on HeLa cells [1] is reported as “increasing γ-H2AX focus points”. Also, the IC50 in test [2] (WST-1, 24 h, mean of three experiments, read-out: IC50 HeLa 24 h) was found to be 19.9 ± 1.1 µM; in test [2] (WST-1, 48 h, read-out: IC50 HeLa 48 h), 18.8 ± 1.1 µM; in test [2] (WST-1, 72 h, read-out: IC50 HeLa 72 h) it was 11.3 ± 1.1 µM; in test [3] (WST-1, 24 h, read-out: IC50 HEK-293 24 h) it was 59.7 ± 11.2 µM; in test [3] (WST-1, 48 h, read-out: IC50 HEK-293 48 h) it was 83.6 ± 21.2 µM; in test [3] (WST-1, 72 h, read-out: IC50 HEK-293 72 h), 35.8 ± 11.2 µM. Further, the IC50 in test [4] (WST-1, 48 h, read-out: IC50 PNT-1A 48 h) is 86.2 ± 12.1 µM; in test [4] (WST-1, 72 h, read-out: IC50 PNT-1A 72 h), 197 ± 11.2 µM. Further, the “lactate level of media” value with HeLa cells [5] (HeLa cell media) is given as “significant dose-related fall”. For the same compound, the pHe result with HeLa cells [5] (HeLa cell media) is on record as “significant increase”. The pHi entry in the test with HeLa cells [5] (HeLa, 0, 10, 25 and 50 µM) is listed as “significant dose-related fall”. The “CA IX protein expression” value in the test with HeLa cells [6] (HeLa, 50μM) is on record as “increase”. The “cleaved caspase-8 level” value in the test on HeLa cells [6] (HeLa, 50μM) is recorded as “increase”. In addition, the “cleaved caspase-9 level” value in the test with HeLa cells [6] (HeLa, 10, 25, 50 µM) is “increase”. The “cleaved caspase-3 level” value in the test on HeLa cells [6] (HeLa) is listed as “significantly increased”. For the same compound, in the test with HeLa cells [6] (HeLa), the cleaved-PARP level entry is “increase”.

These data come from article PMC6052416, “Selective inhibition of carbonic anhydrase-IX by sulphonamide derivatives induces pH and reactive oxygen species-mediated apoptosis in cervical cancer HeLa cells” (Journal of Enzyme Inhibition and Medicinal Chemistry, 2018).
